Laboratory results as given in patent US6632963B1, “Bicyclic aromatic compounds and pharmaceutical/cosmetic compositions comprised thereof” (Galderma Research & Development S.N.C., priority 1998, dated 2003).

Legend:
[1] = biological target: T1, RXRα (Homo sapiens, UniProt P19793); test: RXRα transactivation, agonist activity; assay type: cell-based
T1 sequence (P19793 1-462): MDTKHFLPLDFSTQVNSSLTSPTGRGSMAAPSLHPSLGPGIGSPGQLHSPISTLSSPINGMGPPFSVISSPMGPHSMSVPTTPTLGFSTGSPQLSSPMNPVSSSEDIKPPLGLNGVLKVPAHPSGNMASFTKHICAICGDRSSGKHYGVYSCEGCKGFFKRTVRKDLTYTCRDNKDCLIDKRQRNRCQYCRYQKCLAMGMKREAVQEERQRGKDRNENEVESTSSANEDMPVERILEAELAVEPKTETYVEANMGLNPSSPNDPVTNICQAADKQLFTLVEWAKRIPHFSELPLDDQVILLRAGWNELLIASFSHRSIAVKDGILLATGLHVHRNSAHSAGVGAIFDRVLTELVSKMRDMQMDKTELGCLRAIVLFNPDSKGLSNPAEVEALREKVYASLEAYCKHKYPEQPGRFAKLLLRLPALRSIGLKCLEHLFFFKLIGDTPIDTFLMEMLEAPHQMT
Source text: The binding and transactivation properties as RXR-receptor agonists can be determined by methods known in the art, such as, for example: Levin et al., Nature, 355, 359-61 (1992); Allenby et al., Proc. Natl. Acad. Sci., 90, 30-4 (1993).

[2] = biological target: T1, RXRα; test: cell-based

Row | SMILES | melting point | AC50 [1] | IC50 [2] | RXRα transactivation Agonist AC50 (nM) [1]
1 | COCOc1c(-c2cccc(C=CC(=O)O)c2)ccc2c1C(C)(C)CCC2(C)C | 188 to 189 °C |  |  | 
2 | COc1c(-c2cccc(C=CC(=O)O)c2)cc(C(C)(C)C)cc1C(C)(C)C [Compound 1, 3-(3′,5′-di-tert-Butyl-2′-methoxy-3-biphenylyl)acrylic Acid] |  | 384 nM |  | 
3 | CC(C)(C)c1cc(-c2cc(C=CC(=O)O)ccc2O)c(OCc2ccccc2)c(C(C)(C)C)c1 [Compound 2, 3-(2′-Benzyloxy-3′,5′-di-tert-butyl-6-hydroxy-3-biphenylyl)acrylic Acid] |  |  | 920 nM | inactive
4 | CCCCCOc1c(-c2cc(C=CC(=O)O)ccc2O)cc(C(C)(C)C)cc1C(C)(C)C [Compound 3, 3-(3′,5′-di-tert-Butyl-6-hydroxy-2′-pentyloxy-3-biphenylyl)acrylic Acid] |  |  | 729 nM | inactive
5 | COc1c(-c2cc(C=CC(=O)O)ccc2O)cc(C(C)(C)C)cc1C(C)(C)C [Compound 4, 3-(3′,5′-di-tert-Butyl-6-hydroxy-2′-methoxy-3-biphenylyl)acrylic Acid] |  | 165 nM |  | 
6 | COCOc1ccc(C=CC(=O)O)cc1-c1cc2c(cc1OCc1ccccc1)C(C)(C)CCC2(C)C [Compound 5, 3-[3-(3-Benzyloxy-5,5,8,8-tetramethyl-5,6,7,8-tetrahydro-2-naphthyl)-4-methoxymethoxyphenyl]acrylic Acid] |  |  | 4000 nM | inactive
7 | CC1(C)CCC(C)(C)c2cc(-c3cc(C=CC(=O)O)ccc3O)c(OCc3ccccc3)cc21 [Compound 6, 3-[3-(3-Benzyloxy-5,5,8,8-tetramethyl-5,6,7,8-tetrahydro-2-naphthyl)-4-hydroxyphenyl]acrylic Acid] |  |  | 505 nM | inactive
8 | COCOc1ccc(C#CC(=O)O)cc1-c1cc2c(cc1C)C(C)(C)CCC2(C)C [Compound 7, [4-Methoxymethoxy-3-(3,5,5,8,8-pentamethyl-5,6,7,8-tetrahydro-2-naphthyl)phenyl]propynoic Acid] |  | 32 nM |  | 
9 | CCCOc1cc2c(cc1-c1cc(C=CC(=O)O)ccc1OCOC)C(C)(C)CCC2(C)C [Compound 8, 3-[3-(3-Propyloxy-5,5,8,8-tetramethyl-5,6,7,8-tetrahydro-2-naphthyl)-4-methoxymethoxyphenyl]acrylic Acid] |  |  | 1100 nM | inactive
10 | CCCCCOc1cc2c(cc1-c1cc(C=CC(=O)O)ccc1OCOC)C(C)(C)CCC2(C)C [Compound 9, 3-[3-(3-Pentyloxy-5,5,8,8-tetramethyl-5,6,7,8-tetrahydro-2-naphthyl)-4-methoxymethoxyphenyl]acrylic Acid] |  |  | 631 nM | inactive
